In US6337411B2, “Stromelysin inhibitors” (Aventis Pharma Deutschland GmbH, priority 1999, dated 2002):

What was measured:
[1] = Stability of isolated stromemycin in solution (properties); type: physicochemical; settings: neutral medium vs strongly acidic and alkaline solution
Excerpt: (§1) The stromemycin obtained has the following properties: […]

[2] = biological target: T1, catalytic domain of human stromelysin (MMP-3) (Homo sapiens, UniProt P08254); test: Enzymatic activity of the catalytic domain of human stromelysin (fluorogenic substrate); type: biochemical; settings: inhibitor concentration giving 50% inhibition of the enzyme; pH 6.5 buffer; 15 minutes preincubation; fluorescence 328 nm (ex)/393 nm (em)
T1 construct: enzymatic activity of the catalytic domain of human stromelysin; made in house
Procedure: Preparation and determination of the enzymatic activity of the catalytic domain of human stromelysin
The enzyme stromelysin (MMP-3) was prepared according to Ye et al. (Biochemistry; 31 (1992) pages 11231-11235). For the measurement of the enzyme activity or of the enzyme inhibitor action, 70 μl of buffer solution and 10 μl of enzyme solution were incubated for 15 minutes with 10 μl of a 10% strength (v/v) aqueous dimethyl sulfoxide solution, which optionally contained the enzyme inhibitor. After addition of 10 μl of a 10% strength (v/v) aqueous dimethyl sulfoxide solution which contained I mmol/l of the substrate, the enzyme reaction was monitored by fluorescence spectroscopy (328 nm (ex)/393 nm (em)). The enzyme activity is shown as the extinction increase/minute. The IC50 value was determined as that inhibitor concentration which in each case led to a 50% inhibition of the enzyme.
The buffer solution contained 0.05% Brij (Sigma, Deisenhofen, Germany) and 0.1 mol/l of tris/HCl, 0.1 mol/l of NaCl, 0.01 mol/l of CaCl2 and 0.1 mol/l of piperazine-N,N′-bis[2-ethanesulfonic acid] (pH=6.5).
The enzyme solution contained 5 μg/ml of an enzyme domain prepared according to Ye et al. The substrate solution contained 1 mmol/l of the fluorogenic substrate (7-methoxycoumarin-4-yl)acetyl-Pro-Leu-Gly-Leu-3-(2′,4′-dinitrophenyl)-L-2,3-diaminopropionyl-Ala-Arg-NH2 (Bachem, Heidelberg, Germany).

[3] = Solubility of isolated stromemycin (properties); type: physicochemical; settings: solvents methanol, DMSO
Excerpt: as §1

T1 sequence (P08254 100-272 limits assumed): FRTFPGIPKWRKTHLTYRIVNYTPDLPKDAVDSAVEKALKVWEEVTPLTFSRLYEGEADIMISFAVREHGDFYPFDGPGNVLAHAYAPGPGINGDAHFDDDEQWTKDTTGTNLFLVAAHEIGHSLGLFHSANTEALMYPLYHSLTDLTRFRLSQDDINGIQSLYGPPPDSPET

## CCCC=CC=CCCc1cc(OC(=O)c2c(CCC=CC=CCCC)cc(O)c(C3OC(CO)C(O)C(O)C3O)c2O)cc(O)c1C(=O)O (stereo not drawn) [stromemycin]
[1]
  Stability: stable in neutral medium, but unstable in strongly acidic and alkaline solution
[2]
  IC50: 115 µM
[3]
  Solubility: soluble in methanol, dimethyl sulfoxide (DMSO)
